test system: CCRF-CEM cancer cells - leukemia; experiment: Fluorometric Microculture Cytotoxicity Assay (FMCA), CCRF-CEM; type: cell-based; settings: Homo sapiens, 72 h incubation
Excerpt: The Fluorometric Microculture Cytotoxicity Assay, FMCA (Larsson, R., et al.; Anticancer Res, 1989, 9, 1111-1119), is a three day non-clonogenic microplate-based cell viability assay used for measurement of the cytotoxic and/or cytostatic effect of compounds in vitro (Lindhagen, E. et al.; Nat. Protoc., 2008, 3, 1364-1369). FMCA represents a valuable method to measure cytotoxicity in a number of cell types, both cell lines and primary cells from patients (Larsson, R., et al.; Int. J. Cancer, 1992, 50, 177-185; Fridborg, H., et al.; Eur. J. Cancer, 1999. 35, 424-432; Dhar, S., et al.; Br. J. Cancer, 1996, 74, 888-896).
FMCA is based on the principle that fluorescein diacetate (FDA) is converted to the fluorescent probe fluorescein by esterases in the plasma membranes of living cells. For experiments, 96 or 384-well microplates are prepared with compounds and stored at −70° C. until use. Cells are then seeded into the drug-prepared plates and placed in an incubator for 72 h. On the last day of incubation, the plates are washed and a buffer containing FDA is added and incubated with the cells for 45 minutes. Finally the fluorescence per well is measured in a fluorometer and a Survival Index % (SI) for each compound-treated well is calculated with the equation: Compound-treated cells minus blank divided by control cells minus blank. A high SI-value indicates a large percentage of living cells and vice versa.
In subsequent experiments, compounds were tested, along with a number of approved cancer drugs (dasatinib, pazopanib, sorafenib, and sunitinib) as described above. Initially, the acute lymphoblastic leukemia cell line CCRF-CEM was used throughout. In the assay plates, medium was added to six empty wells (blank wells) and wells were filled with PBS and cell suspension and served as control wells. SI-values were then calculated for each compound-treated well as described above. All experiments were conducted twice and a new batch of plates was prepared for each experiment.
For dose-response experiments, 384-well plates were prepared as follows:
Compounds of the invention as well comparative kinase inhibitors sorafenib sunitinib, dasatinib, pazopanib and a reference compound disclosed in WO 2009/071535 (compound #107) were diluted with PBS to a concentration ten-times higher than the desired starting concentration. Then, a Biomek 2000 liquid handling system was employed to serially dilute the compounds in a deep-well 384-well plate. From this plate, assay plates containing 5 μl compound per well were prepared with the Biomek 2000. Certain compounds precipitated when diluted with PBS, and these compounds were therefore prepared in a 96-well plate manually as described above using culture medium RPMI 1640 instead of PBS.
The compounds were also tested at five concentrations, with five times serial dilution on the following cell types: CCRF-CEM, hTERT-RPE1 (normal retinal epithelial cells), hRPTEpiC (normal renal cells), and peripheral blood mononuclear cells (PBMC). Each experiment was performed three times, except for PBMC and hRPTEpiC, which were performed twice. SI-values were calculated, graphs were plotted using GraphPadPrism 5.0 (GraphPad Software Inc. La Jolla, Calif.) and IC50-values for each cell type and compound were determined from the curves.

Row | Compound | EC50 [nM]
1 | COc1ccc2[nH]cc(CCNc3nccc(Nc4cccc5[nH]ccc45)n3)c2c1 [Example 21, N^4-(1H-indol-4-yl)-N^2-[2-(5-methoxy-1H-indol-3-yl)ethyl]pyrimidine-2,4-diamine] | 59
2 | COc1ccc2[nH]cc(CCNc3nc(Nc4ccc5[nH]c(C)cc5c4)cc(C(N)=O)n3)c2c1 [Example 28, 2-[2-(5-methoxy-1H-indol-3-yl)ethylamino]-6-(2-methyl-1H-indol-5-ylamino)pyrimidine-4-carboxamide] | 58
3 | COc1ccc2[nH]cc(CCNc3nccc(N(C)c4ccc5c(c4)cc(C)n5C)n3)c2c1 [Example 62, N^4-(1,2-dimethyl-1H-indol-5-yl)-N^2-[2-(5-methoxy-1H-indol-3-yl)ethyl]-N^4-methylpyrimidine-2,4-diamine] | 1000 to 10000
4 | Cc1nc(Nc2ncc(C(=O)Nc3c(C)cccc3Cl)s2)cc(N2CCN(CCO)CC2)n1 [Ref. 3, dasatinib, reference compound] | 9700
5 | COc1cccc2[nH]cc(CCNc3nccc(Nc4ccc5[nH]c(C)cc5c4)n3)c12 [Example 47, N^2-[2-(4-methoxy-1H-indol-3-yl)ethyl]-N^4-(2-methyl-1H-indol-5-yl)pyrimidine-2,4-diamine] | 330
6 | COc1cc(C)c2[nH]cc(CCNc3nccc(Nc4ccc5[nH]c(C)cc5c4)n3)c2c1 [Example 51, N^2-[2-(5-methoxy-7-methyl-1H-indol-3-yl)ethyl]-N^4-(2-methyl-1H-indol-5-yl)pyrimidine-2,4-diamine] | 76
7 | CCOc1ccc2[nH]cc(CCNc3nc(Nc4ccc5[nH]c(C)cc5c4)cc(C(N)=O)n3)c2c1 [Example 85, 2-[2-(5-ethoxy-1H-indol-3-yl)ethylamino]-6-[(2-methyl-1H-indol-5-yl)amino]pyrimidine-4-carboxamide] | < 100
8 | Cc1cc2cc(Nc3ccnc(NCCc4c[nH]c5ccc(OC(C)C)cc45)n3)ccc2[nH]1 [Example 49, N^2-[2-(5-isopropoxy-1H-indol-3-yl)ethyl]-N^4-(2-methyl-1H-indol-5-yl)pyrimidine-2,4-diamine] | 100
9 | COc1ccc2[nH]cc(CCN(C)c3nccc(Nc4ccc5[nH]c(CO)cc5c4)n3)c2c1 [Example 59, [5-(2-{[2-(5-methoxy-1H-indol-3-yl)ethyl][methyl]amino}pyrimidin-4-ylamino)-1H-indol-2-yl]methanol] | 1000 to 10000
10 | COc1ccc2[nH]cc(CCNc3nc(Nc4cccc5c4ccn5C)cc(C(N)=O)n3)c2c1 [Example 87, 2-[2-(5-methoxy-1H-indol-3-yl)ethylamino]-6-[(1-methylindol-4-yl)amino]pyrimidine-4-carboxamide] | < 100
11 | COC(=O)c1cc2cc(Nc3ccnc(NCCc4c[nH]c5ccc(OC)cc45)n3)ccc2[nH]1 [Example 16, methyl 5-{2-[2-(5-methoxy-1H-indol-3-yl)ethylamino]pyrimidin-4-ylamino}-1H-indole-2-carboxylate] | 940
12 | CCOc1ccc2[nH]cc(CCNc3nccc(Nc4ccc5[nH]c(CO)cc5c4)n3)c2c1 [Example 72, [5-({2-[2-(5-ethoxy-1H-indol-3-yl)ethylamino]pyrimidin-4-yl}amino)-1H-indol-2-yl]methanol] | < 100
13 | Cc1ccc(Nc2nccc(N(C)c3ccc4c(C)n(C)nc4c3)n2)cc1S(N)(=O)=O [Ref. 4, pazopanib, reference compound] | 25900
14 | CCOc1ccc2[nH]cc(CCNc3nccc(Nc4ccc5ccn(C)c5c4)n3)c2c1 [Example 76, N^2-[2-(5-ethoxy-1H-indol-3-yl)ethyl]-N^4-(1-methylindol-6-yl)pyrimidine-2,4-diamine] | < 1000
15 | COc1ccc2[nH]cc(CCNc3nccc(Nc4ccc5ccn(C)c5c4)n3)c2c1 [Example 75, N^2-[2-(5-methoxy-1H-indol-3-yl)ethyl]-N^4-(1-methylindol-6-yl)pyrimidine-2,4-diamine] | < 1000
16 | Cc1cc2cc(Nc3nccc(NCCc4c[nH]c5ccccc45)n3)ccc2[nH]1 [Example 22, N^4-[2-(1H-indol-3-yl)ethyl]-N^2-(2-methyl-1H-indol-5-yl)pyrimidine-2,4-diamine] | 3400
17 | Cc1cc2cc(Nc3ccnc(NCCc4c[nH]c5ccc(O)cc45)n3)ccc2[nH]1 [Example 8, 3-{2-[4-(2-methyl-1H-indol-5-ylamino)pyrimidin-2-ylamino]ethyl}-1H-indol-5-ol] | 3100
18 | CNC(=O)c1cc(Oc2ccc(NC(=O)Nc3ccc(Cl)c(C(F)(F)F)c3)cc2)ccn1 [Ref. 1, sorafenib, reference compound] | 8300
19 | COc1ccc2[nH]cc(CCNc3nccc(Nc4ccc5[nH]ccc5c4)n3)c2c1 [Example 2, N^4-(1H-indol-5-yl)-N^2-[2-(5-methoxy-1H-indol-3-yl)ethyl]pyrimidine-2,4-diamine] | 140
20 | COc1ccc2[nH]cc(CCNc3nccc(Nc4ccc5c(c4)nc(CO)n5C)n3)c2c1 [Example 60, (5-{2-[2-(5-methoxy-1H-indol-3-yl)ethylamino]pyrimidin-4-ylamino}-1-methyl-1H-benzo[d]imidazol-2-yl)methanol] | 210
21 | CCOc1ccc2[nH]cc(CCNc3ncc(N)c(Nc4ccc5[nH]c(C)cc5c4)n3)c2c1 [Example 90, N^2-[2-(5-ethoxy-1H-indol-3-yl)ethyl]-N^4-(2-methyl-1H-indol-5-yl)pyrimidine-2,4,5-triamine] | < 100
22 | COc1cccc2c(CCNc3nccc(Nc4ccc5[nH]c(C)cc5c4)n3)c[nH]c12 [Example 12, N^2-[2-(7-methoxy-1H-indol-3-yl)ethyl]-N^4-(2-methyl-1H-indol-5-yl)pyrimidine-2,4-diamine] | 130
23 | COc1ccc2[nH]cc(CCNc3nccc(Nc4ccc5cc(C)[nH]c5c4)n3)c2c1 [Example 73, N^2-[2-(5-methoxy-1H-indol-3-yl)ethyl]-N^4-(2-methyl-1H-indol-6-yl)pyrimidine-2,4-diamine] | < 100
24 | CCOc1ccc2[nH]cc(CCNc3nc(C)cc(Nc4ccc5[nH]c(C)cc5c4)n3)c2c1 [Example 55, N^2-[2-(5-ethoxy-1H-indol-3-yl)ethyl]-6-methyl-N^4-(2-methyl-1H-indol-5-yl)pyrimidine-2,4-diamine] | 53
25 | c1ccc2c(CCNc3nccc(Nc4ccc5[nH]ccc5c4)n3)c[nH]c2c1 [Example 1, N^2-[2-(1H-indol-3-yl)ethyl]-N^4-(1H-indol-5-yl)pyrimidine-2,4-diamine] | 4100
26 | COc1ccc2[nH]cc(CCNc3nccc(Nc4ccc5c(c4)ncn5C)n3)c2c1 [Example 52, N^2-[2-(5-methoxy-1H-indol-3-yl)ethyl]-N^4-(1-methyl-1H-benzo[d]imidazol-5-yl)pyrimidine-2,4-diamine] | 430
27 | CCOc1ccc2[nH]cc(CCNc3nc(C)cc(Nc4ccc5[nH]c(C)nc5c4)n3)c2c1 [Example 58, N^2-[2-(5-ethoxy-1H-indol-3-yl)ethyl]-6-methyl-N^4-(2-methyl-1H-benzo[d]imidazol-5-yl)pyrimidine-2,4-diamine] | 170
28 | COc1ccc2[nH]cc(CCNc3nc(C)cc(Nc4ccc5[nH]c(C)nc5c4)n3)c2c1 [Example 57, N^2-[2-(5-methoxy-1H-indol-3-yl)ethyl]-6-methyl-N^4-(2-methyl-1H-benzo[d]imidazol-5-yl)pyrimidine-2,4-diamine] | 230
29 | COc1ccc2[nH]cc(CCNc3ccnc(Nc4cccc5c4ccn5C)n3)c2c1 [Example 84, N^4-[2-(5-methoxy-1H-indol-3-yl)ethyl]-N^2-(1-methylindol-4-yl)pyrimidine-2,4-diamine] | < 100
30 | COc1ccc2[nH]cc(CCNc3ccnc(Nc4ccc5[nH]c(C)cc5c4)n3)c2c1 [Example 23, N^4-[2-(5-methoxy-1H-indol-3-yl)ethyl]-N^2-(2-methyl-1H-indol-5-yl)pyrimidine-2,4-diamine] | 59

Source: patent US9006241B2, “Pyrimidine derivatives” (Noviga Research AB, priority 2011, dated 2015)
